We go through eight molecules from patent US10267796B2, “Screening methods of modulating adrenergic receptor gene expressions implicated in melanogenesis” (The Procter & Gamble Company, priority 2010, dated 2019).

The test system of one test is B16-F1 cells. The test can be described thus: B16 cell melanin synthesis assay. The test is classed as cell-based, murine. To be noted: FIG. 4; for effect on melanin synthesis (% MS): increasing concentration (w/v %). An excerpt:
Determining test agents suitable as ADRβ1 antagonists, ADRβ2 antagonists, or combinations thereof may utilize a melanin synthesis assay selected from the group consisting of a B16 cell assay or a skin model. The B16-F1 cells, which are murine melanoma cells obtained from American Tissue Culture Collection (ATCC), contain the synthetic machinery for melanin production and respond to some benchmark whitening/tanning agents. The following experiment depicts one exemplary method of determining the effect of test agents on melanin synthesis. In the experiment, 0.5 mL of B16-F1 cells are added to 29.5 ml of B16-F1 culture media to 2 separate T-150 flasks, and grown to near (˜80% ) confluency. The culture media B16-F1 comprises the following components as shown in Table 1 below: The cells from the T-150 flasks were trypsinized and counted with a hemacytometer. Then, cell vials (1×10^6 cell aliquots) were frozen in a mixture comprising 95% B16-F1 culture medium and 5% DMSO (Dimethyl sulfoxide) and placed in liquid Nitrogen. All cell culture reagents (except trypsin) were heated in a 37° C. water bath. On day zero, 29 mL of B16-F1 culture media was placed into a T-150 flask at 37° C. Then, a vial of the frozen cells was obtained, thawed in a 37° C. water bath, and placed in the T-150 flask. The flask was agitated to mix the cells with the media, and then the flask was incubated for 3 days at 37° C. in a humidified environment comprising 5% CO2. On day 3, the cells from the flask were trypsinized and the cell density was determined. At which point, the cells were split into a 96-well plate with 2,500 cells per well. At day 5, the cells were treated with the test agents. On day 7, the cells were assayed for melanin production and toxicity. […] As stated above, ADRβ1 and ADRβ2 stimulation result in elevated cAMP levels which drive tyrosinase production in known melanogenesis pathways.

Another test has as its system human skin explants. As to the kind of experiment: Pigmentation gene expression in human skin explants. As to conditions: compared with Stem Cell Factor & Endothelin (Endo-SCF), FIG. 5. In kind it is cell-based. The source says: FIG. 5 is a graphical illustration depicting the effect of dobutamine on human skin explants.
As stated above, ADRβ1 and ADRβ2 stimulation result in elevated cAMP levels which drive tyrosinase production in known melanogenesis pathways.

The target of the next test is ADRβ1 receptors (Homo sapiens, UniProt P08588). As to the kind of experiment: ADRβ1 receptor antagonist screening (half maximal inhibitory concentration). The test is classed as binding. The source says:
Based on these inventive discoveries, a screening method for determining at least one test agent effective for modifying the appearance of pigmented skin is provided. The method comprises contacting a cell, a cell culture, or bulk cells with the test agent, wherein the cell, the cell culture, or the bulk cells comprise ADRβ1 receptors, and determining based on the binding interaction of the test agent with the ADRβ1 receptors whether the test agent is an effective ADRβ1 receptor antagonist suitable for modifying the appearance of pigmented skin, wherein a test agent is considered to be an effective ADRβ1 receptor antagonist when it defines a half maximal inhibitory concentration of less than about 1000 ppm.
The method further comprises determining whether test agents are effective for improving the appearance of pigmented skin if the test agent is an antagonist of the ADRβ1 receptors. In one embodiment, the test agent may be identified as an ADRβ1 receptor antagonist if the test agent defines a half maximal inhibitory concentration (IC50) of less than about 1000 ppm. In further embodiments, the ADRβ1 receptor antagonist defines a half maximal inhibitory concentration of less than about 100 ppm, or less than about 50 ppm. By utilizing this metric of maximal inhibitory concentration, it is possible to correlate the antagonistic activity of the ADRβ1 receptor antagonists with an ability of the ADRβ1 receptor antagonists to improve the appearance of hyper-pigmented spots in human skin. In further embodiments, when the ADRβ1 receptor antagonists bind to the ADRβ1 receptors, a luminescent reference signal may be generated, which may be measured by a luminometer, a fluorescence plate reader, or a fluorometer.
As shown below in Table 2, the present inventors have further recognized that modifying a test agent from a peptide to a palmitoylated peptide greatly improves its efficacy as an ADRβ1 inhibitor.

Sequence of ADRβ1 receptors (P08588 whole entry): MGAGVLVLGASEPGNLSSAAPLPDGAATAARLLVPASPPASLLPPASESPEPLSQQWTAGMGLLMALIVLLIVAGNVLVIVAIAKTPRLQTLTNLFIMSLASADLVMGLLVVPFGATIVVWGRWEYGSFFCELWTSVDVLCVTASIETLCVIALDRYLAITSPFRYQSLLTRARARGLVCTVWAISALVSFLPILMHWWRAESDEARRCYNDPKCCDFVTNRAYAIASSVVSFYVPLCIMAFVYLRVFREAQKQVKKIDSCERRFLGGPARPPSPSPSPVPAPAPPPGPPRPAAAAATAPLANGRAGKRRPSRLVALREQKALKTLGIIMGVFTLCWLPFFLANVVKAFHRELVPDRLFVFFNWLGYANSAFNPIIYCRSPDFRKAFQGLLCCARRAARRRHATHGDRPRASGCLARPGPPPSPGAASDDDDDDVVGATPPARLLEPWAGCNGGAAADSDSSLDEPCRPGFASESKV

As for `CC(CCc1ccc(O)cc1)NCCc1ccc(O)c(O)c1` (stereo not shown) [dobutamine], the “effect on melanin synthesis (% MS)” value in the test with B16-F1 cells is reported as “increases the melanin synthesis”. Moreover, the pigmentation gene expression result in the test with human skin explants is “induces pigmentation gene expression in human skin explants more than the paracrine factors”.

For `CC(C)NCC(O)c1ccc(O)c(O)c1` (stereo not shown) [isoprenaline], the “melanin synthesis (% MS)” value with B16-F1 cells (as the concentration of isoprenaline increased) is recorded as ~300%. The “effect on melanin synthesis (% MS)” value in the test with B16-F1 cells is reported as “increases the melanin synthesis”.

AcetylGHK: the “ADRβ1 IC 50 (ppm)” value on ADRβ1 receptors worked out at 45 ppm.

In the case of “AcetylGQPR [acetyl-modified GQPR peptide]”, the “ADRβ1 IC 50 (ppm)” value on ADRβ1 receptors was found to be 45 ppm.

GHK: the “ADRβ1 IC 50 (ppm)” value at ADRβ1 receptors was determined as 1100 ppm.

Turning to GQPR, at ADRβ1 receptors, the “ADRβ1 IC 50 (ppm)” value is given as 1200 ppm.

Turning to palGHK, the “ADRβ1 IC 50 (ppm)” value on ADRβ1 receptors came out at 3.3 ppm.

For the molecule palGQPR [palmitoylated GQPR peptide], at ADRβ1 receptors, the “ADRβ1 IC 50 (ppm)” value is recorded as 0.23 ppm.
